# Columns and labels:
# Format in all cases: functional
# [1] = system: Escherichia coli; test: Antibacterial activity against wild type Escherichia coli DK/pKK3535
# [2] = system: Staphylococcus aureus; test: Antibacterial activity against Staphylococcus aureus UCN14 harboring 23S rRNA A2058T mutant
# [3] = system: Escherichia coli; test: Antibacterial activity against Escherichia coli DK harboring 23S rRNA A2058G mutant
# [4] = system: Staphylococcus aureus; test: Antibacterial activity against Staphylococcus aureus ATCC 33591 harboring ermA gene
# [5] = system: Escherichia coli; test: Antibacterial activity against Escherichia coli SQ171 harboring 23S rRNA A2058G mutant
Structure (SMILES),MIC [1] [µg/mL],MIC [2] [µg/mL],MIC [3] [µg/mL],MIC [4] [µg/mL],MIC [5] [µg/mL]
CC[C@H]1OC(=O)[C@H](C)C(=O)C[C@@H](O[C@@H]2O[C@H](C)C[C@H](N(C)C)[C@H]2O)[C@@](C)(OC)CCC(=O)C[C@@H]2N(CCCCn3cnc(-c4cccnc4)c3)C(=O)O[C@@]21C,32,,,,
CC[C@H]1OC(=O)[C@H](C)C(=O)C[C@@H](O[C@@H]2O[C@H](C)C[C@H](N(C)C)[C@H]2O)[C@](C)(OC)C[C@@H](C)C(=O)C[C@H]2N(CCCCn3cnc(-c4cccnc4)c3)C(=O)O[C@]12C,8,> 256,16,> 128,> 512
CC[C@H]1OC(=O)[C@H](C)C(=O)[C@H](C)[C@@H](O[C@@H]2O[C@H](C)C[C@H](N(C)C)[C@H]2O)[C@](C)(OC)C[C@@H](C)C(=O)[C@H](C)[C@H]2N(CCCCn3cnc(-c4cccnc4)c3)C(=O)O[C@]12C [TELITHROMYCIN],0.5,> 128,1,> 128,> 512

# From ChEMBL document CHEMBL2046443, “Desmethyl Macrolides: Synthesis and Evaluation of 4,10-Didesmethyl Telithromycin” (2012)
